Measured values as given in PubChem BioAssay (NCI).
Where “and” joins values, the source holds several entries; their conditions need not be identical. Equal entries are not always repeated.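 Tested at 5 concentrations; 48 h exposure; 96-well plates; endpoints linearly interpolated, else capped at highest concentration. Here, GI50 denotes the concentration required for 50% inhibition of growth. At the TGI there is no net growth.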

Key:
Experiment in all cases: DTP human tumour cell line panel, 48 h
HOP-92 NSCLC = tested on: HOP-92 NSCLC
SN12C renal = tested on: SN12C renal
SK-MEL-28 melanoma = tested on: SK-MEL-28 melanoma
IGROV1 ovarian = tested on: IGROV1 ovarian
MDA-MB-435 = tested on: MDA-MB-435
OVCAR-5 ovarian = tested on: OVCAR-5 ovarian
HL-60(TB) leukemia = tested on: HL-60(TB) leukemia
UO-31 renal = tested on: UO-31 renal
NCI-H226 lung = tested on: NCI-H226 lung
CCRF-CEM leukemia = tested on: CCRF-CEM leukemia

SMILES	GI50 (HOP-92 NSCLC) [µM]	TGI (HOP-92 NSCLC)	GI50 (SN12C renal) [µM]	TGI (SN12C renal)	GI50 (SK-MEL-28 melanoma) [µM]	TGI (SK-MEL-28 melanoma)	GI50 (IGROV1 ovarian)	TGI (IGROV1 ovarian)	GI50 (MDA-MB-435) [µM]	TGI (MDA-MB-435) [µM]	GI50 (OVCAR-5 ovarian)	TGI (OVCAR-5 ovarian)	GI50 (HL-60(TB) leukemia)	TGI (HL-60(TB) leukemia)	GI50 (UO-31 renal) [µM]	TGI (UO-31 renal)	GI50 (NCI-H226 lung)	TGI (NCI-H226 lung)	GI50 (CCRF-CEM leukemia) [µM]	TGI (CCRF-CEM leukemia)
Cn1ncc2c(Nc3ccc(Br)cc3)nc(Nc3ccc(Br)cc3)nc21	1.66	5.23 µM	3.28	12.9 µM	5.09	17 µM	3.22 µM	16.7 µM	2.86	10.7	11.3 µM	24.1 µM	1.44 µM	5.85 µM	3.28	29 µM	2.62 µM	13.4 µM	3.23	22 µM
O=C(CC12CC3CC(CC(C3)C1)C2)NCCOCCOCCNC(=O)c1cc2c(o1)C(=O)c1ccccc1C2=O	2.26	6.1 µM	0.595	1.87 µM	1.58	3.09 µM	1.41 µM	3.21 µM	0.185	0.343	1.69 µM	3.09 µM	1.22 µM	4.61 µM	1.5	3.09 µM	1.65 µM	3.94 µM	2.27	13.1 µM
COc1ccc(OC)c(/C=C/[N+](=O)[O-])c1	2.04	7.23 µM and 10.4 µM		7.19 µM and 7.69 µM		4.96 µM and 9.45 µM	2 µM and 3.79 µM	6.97 µM and 8.79 µM		7.68	2.11 µM and 4.32 µM	4.45 µM and 9.01 µM	1.66 µM and 0.651 µM	4.5 µM and 2.79 µM		3.39 µM and 5.62 µM	1.93 µM and 4.06 µM	4.41 µM and 10.2 µM	1.18	14.6 µM and 5.38 µM
O=C(NNc1nc2cc(F)ccc2n2c(CN3CCOCC3)ccc12)c1ccccc1	0.791	2.87 µM	0.399	2.18 µM	0.29	1.78 µM	0.139 µM	1.47 µM	0.603	2.4	0.474 µM	3.45 µM	0.25 µM	0.931 µM	0.0574	1.3 µM	0.45 µM	2.4 µM	0.0978	4.44 µM
CN(C(=O)c1ccc(F)cc1C(F)(F)F)C1CCN(c2nnc(-c3ccnn3C)c3ccccc23)CC1	16.5	> 92.9 µM	51	> 100 µM	> 65.6	> 100 µM	57.3 µM	> 100 µM	26.6	> 100	> 100 µM	> 100 µM	27.3 µM	> 84.1 µM	22	> 100 µM	28.2 µM	> 100 µM	31.6	> 100 µM
O=C(Cn1ccnc1[N+](=O)[O-])N(CCO)CCO	> 250	> 1250 µM	> 1250	> 1250 µM	> 1250	> 1250 µM	> 1250 µM	> 1250 µM		> 250	> 1250 µM	> 1250 µM	> 1250 µM	> 1250 µM	> 1250	> 1250 µM	> 1250 µM	> 1250 µM	> 580	> 580 µM
CCOc1ccc(NC(=O)Nc2cc(C(C)C)ccc2C)cc1	1.83	7.54 µM	5.15	24 µM	8.32	41.8 µM	6.37 µM	15.7 µM	17.6	> 100	11.9 µM	> 76 µM	> 57.9 µM	> 100 µM	4.82	16.9 µM	10.2 µM	50.1 µM	> 25.5	> 100 µM
O=C(NO)c1ccc(C(=O)NO)cc1		> 100 µM		> 100 µM		> 100 µM		> 100 µM		> 100		> 100 µM		> 100 µM		> 100 µM		> 100 µM		83.1 µM
C[C@@H]1O[C@@H](O[C@H]2C[C@@H](O)[C@]3(CO)C4C(CC[C@]3(O)C2)[C@@]2(O)CC[C@H](C3=CC(=O)OC3)[C@@]2(C)C[C@H]4O)[C@H](O)[C@H](O)[C@H]1O (stereo not given in full)	0.0597	0.25 µM	0.0178	0.0844 µM	0.0881	0.164 µM	0.0273 µM	0.23 µM	0.0595	0.134	0.0606 µM	0.127 µM	0.013 µM	0.0318 µM	0.0165	0.0618 µM	0.0741 µM	0.154 µM	0.0168	0.0808 µM
COc1cc2c(cc1OC)C13CCN4CC5=CCOC(CC(=O)O)C(C5CC41)C3N2 (stereo not given)		> 100 µM		> 100 µM		> 100 µM		> 100 µM		> 100		> 100 µM		> 100 µM		> 100 µM		> 100 µM		> 100 µM
O=C(c1ccccc1)c1ccc(-c2ccc(O)cc2)cc1	5.63	30.3 µM	20.2	> 100 µM	10.4	> 61.7 µM	3.69 µM	22.7 µM	0.328	1.55	31 µM	> 100 µM	1.89 µM	11.1 µM	4.04	50.3 µM	16.8 µM	> 73.7 µM	0.533	> 23.9 µM
Cn1ncc2cc(-c3cnc(N)c(Cl)c3N3CCC4(CCNC4=O)CC3)ccc21	13	82.4 µM	32.7	> 100 µM	33	> 100 µM	14.8 µM	> 100 µM	45.4	> 100	> 100 µM	> 100 µM	16.8 µM	42.6 µM	17.7	> 100 µM	38.1 µM	> 100 µM	36.9	> 100 µM
O=C1Nc2ccc(F)c3c(OCCO)cc(-c4ccc[nH]4)c1c23	0.908	5.4 µM	1.11	9.83 µM	4.43	15.1 µM	1.86 µM	10.4 µM	1.46	14.1	2.35 µM	10 µM	1.14 µM	7.44 µM	0.632	4.05 µM	1.47 µM	12.8 µM	0.99	11.1 µM
O=S(=O)(c1cccc(C(F)(F)F)c1)N1c2ccccc2-n2cccc2C1c1cccnc1 (stereo not given)		> 67.7 µM		> 62.3 µM		> 59 µM		> 100 µM		> 42.2		> 75.1 µM		28.3 µM		34.3 µM		> 53 µM		> 51.6 µM
CN(C(=O)C1CCCCC1)c1ccccc1I(=O)=O	26.1	67 µM	79.4	> 100 µM	22.8	56.9 µM	52.2 µM	> 100 µM	41.4	> 100	37.2 µM	> 100 µM	13.5 µM	36.8 µM	51	> 100 µM	> 100 µM	> 100 µM	17.6	38 µM
